Source: patent US20260028365A1 (BIOGEN MA INC., priority 2022, published 2026)

Biological target: Tyk2 (Homo sapiens (Human), UniProt P29597)
Experiment: pSTAT4 Cell Assay (MSD, NK92 cells)
Type: cell-based
Settings: not given

Sequence of Tyk2 (P29597 whole entry): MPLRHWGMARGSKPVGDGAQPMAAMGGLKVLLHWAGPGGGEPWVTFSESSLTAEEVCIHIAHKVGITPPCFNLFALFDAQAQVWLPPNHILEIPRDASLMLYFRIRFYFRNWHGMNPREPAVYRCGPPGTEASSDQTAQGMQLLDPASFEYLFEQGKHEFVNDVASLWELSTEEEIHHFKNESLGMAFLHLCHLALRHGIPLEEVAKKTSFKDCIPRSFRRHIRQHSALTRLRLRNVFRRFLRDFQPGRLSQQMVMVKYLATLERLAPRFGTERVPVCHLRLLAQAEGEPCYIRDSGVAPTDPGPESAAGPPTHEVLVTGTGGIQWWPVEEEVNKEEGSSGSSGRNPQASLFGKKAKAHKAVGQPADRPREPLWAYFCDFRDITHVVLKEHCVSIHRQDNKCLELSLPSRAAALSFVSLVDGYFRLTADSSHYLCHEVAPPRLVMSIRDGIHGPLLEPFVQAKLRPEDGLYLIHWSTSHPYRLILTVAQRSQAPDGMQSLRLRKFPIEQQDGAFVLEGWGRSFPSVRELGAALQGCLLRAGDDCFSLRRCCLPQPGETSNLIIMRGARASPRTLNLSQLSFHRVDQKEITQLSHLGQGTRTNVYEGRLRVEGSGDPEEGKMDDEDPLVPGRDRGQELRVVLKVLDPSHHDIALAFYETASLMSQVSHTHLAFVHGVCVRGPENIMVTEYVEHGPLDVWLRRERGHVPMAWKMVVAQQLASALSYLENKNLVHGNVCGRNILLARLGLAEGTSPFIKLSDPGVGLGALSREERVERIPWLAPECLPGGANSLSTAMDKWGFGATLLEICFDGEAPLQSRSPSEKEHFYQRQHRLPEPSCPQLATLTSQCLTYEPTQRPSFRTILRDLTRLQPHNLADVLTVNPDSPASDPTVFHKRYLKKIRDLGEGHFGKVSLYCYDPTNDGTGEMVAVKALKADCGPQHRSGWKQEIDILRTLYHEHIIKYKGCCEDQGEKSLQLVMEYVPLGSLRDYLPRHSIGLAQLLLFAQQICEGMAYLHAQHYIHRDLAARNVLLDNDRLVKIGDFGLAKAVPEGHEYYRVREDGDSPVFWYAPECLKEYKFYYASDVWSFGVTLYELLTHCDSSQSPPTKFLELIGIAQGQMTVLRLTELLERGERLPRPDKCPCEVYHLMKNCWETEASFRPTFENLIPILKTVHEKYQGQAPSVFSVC

Row | Compound | IC50 [nM]
1 | COC1CCN(c2ccc(-c3cnc(NC(C)=O)cc3Nc3ccnc(C(C)(F)F)n3)nn2)C1 (racemic) [Example 873, rac-(R)-N-(4-((2-(1,1-difluoroethyl)pyrimidin-4-yl)amino)-5-(6-(3-methoxypyrrolidin-1-yl)pyridazin-3-yl)pyridin-2-yl)acetamide] | ≤ 10
2 | CC(=O)Nc1cc(Nc2ccnc(C(C)(F)F)n2)c(-c2ccc(CN3C[C@H]4C[C@@H]3CO4)cn2)cn1 (racemic) [Example 884, rac-N-(5-(((1R,4R)-2-oxa-5-azabicyclo[2.2.1]heptan-5-yl)methyl)-4′-((2-(1,1-difluoroethyl)pyrimidin-4-yl)amino)-[2,3′-bipyridin]-6′-yl)acetamide] | ≤ 10
3 | CC(=O)Nc1cc(Nc2cc(C)nc(C(C)(F)F)n2)c([C@@H]2C[C@@H]2C#N)cn1 (relative stereo) [Example 810, rel-N-(5-((1R,2S)-2-cyanocyclopropyl)-4-((2-(1,1-difluoroethyl)-6-methylpyrimidin-4-yl)amino)pyridin-2-yl)acetamide] | ≥ 1000

Same assay, conditions: MSD

Row | Compound | IC50 [nM]
4 | CC(=O)Nc1cc(Nc2cc(C)nc(C(C)(F)F)n2)c(OC[C@H]2C[C@H]2CF)cn1 (racemic) [Example 428, Cis-rac-N-(4-((2-(1,1-difluoroethyl)-6-methylpyrimidin-4-yl)amino)-5-((2-(fluoromethyl)cyclopropyl)methoxy)pyridin-2-yl)acetamide] | 10 to 100
5 | CCOc1cnc(NC(C)=O)cc1Nc1cc(C)nc(C2CC2(C)C)n1 (racemic) [Example 518, rac-(R)-N-(4-((2-(2,2-dimethylcyclopropyl)-6-methylpyrimidin-4-yl)amino)-5-ethoxypyridin-2-yl)acetamide] | 100 to 1000
6 | CC(=O)Nc1cc(Nc2cc(C)nc(C(C)(F)F)n2)c(-c2cccc(C(C)O)n2)cn1 (racemic) [Example 638, rac-(R)-N-(4′-((2-(1,1-difluoroethyl)-6-methylpyrimidin-4-yl)amino)-6-(1-hydroxyethyl)-[2,3′-bipyridin]-6′-yl)acetamide] | ≤ 10

Biological target: JH2 domain of human Tyk2 (Homo sapiens (Human), UniProt P29597)
Experiment: JH2 Biochemical Assay (TR-FRET probe displacement)
Type: binding
Settings: JH2 domain of human Tyk2, TR-FRET probe displacement
Method: The inhibitory potency of compounds of the disclosure against the kinase activity of recombinantly generated JH2 domain of human Tyk2 was evaluated in a plate-based assay using a TR-FRET assay platform. Briefly, 2 nM of recombinant JH2 domain [10×His-tagged TYK2 JH2 domain (amino acid 575-876)] was combined with 2 nM probe ((S)-6-amino-9-(2-carboxy-4-((1-(3-(8-methyl-5-(methylamino)-8H-imidazo[4,5-d]thiazolo[5,4-b]pyridin-2-yl)phenyl)ethyl)carbamoyl)phenyl)-3-iminio-5-sulfo-3H-xanthene-4-sulfonate), 0.1 nM Tb-labeled anti-His antibody, and compounds of disclosure for 60 minutes. Compounds are tested at either 10 μM or 1 μM top concentration, 10 points of 3-fold dilution. The TR-FRET signal inversely correlates to the amount of probe displaced by compounds and signal was calculated by taking the ratio of fluorescence at 520 nm and 495 nm. The data was normalized and the percent activity versus log concentration of compound was fitted with a 4-parameter logistic model to generate IC50 curves.

Sequence of JH2 domain of human Tyk2 (P29597 575-876): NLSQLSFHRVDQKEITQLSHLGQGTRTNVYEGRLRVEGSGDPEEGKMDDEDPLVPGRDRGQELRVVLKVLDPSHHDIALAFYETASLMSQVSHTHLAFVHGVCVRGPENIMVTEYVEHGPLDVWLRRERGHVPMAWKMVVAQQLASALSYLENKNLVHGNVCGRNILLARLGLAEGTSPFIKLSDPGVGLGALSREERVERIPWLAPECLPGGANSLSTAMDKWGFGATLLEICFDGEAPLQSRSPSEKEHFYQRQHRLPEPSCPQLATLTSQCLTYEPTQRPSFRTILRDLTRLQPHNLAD

Row | Compound | IC50 [nM]
7 | CC(=O)Nc1cc(Nc2cc(C)nc(C(C)(F)F)n2)c(OC[C@H]2C[C@H]2CF)cn1 (racemic) [Example 428, Cis-rac-N-(4-((2-(1,1-difluoroethyl)-6-methylpyrimidin-4-yl)amino)-5-((2-(fluoromethyl)cyclopropyl)methoxy)pyridin-2-yl)acetamide] | ≤ 10
8 | CCOc1cnc(NC(C)=O)cc1Nc1cc(C)nc(C2CC2(C)C)n1 (racemic) [Example 518, rac-(R)-N-(4-((2-(2,2-dimethylcyclopropyl)-6-methylpyrimidin-4-yl)amino)-5-ethoxypyridin-2-yl)acetamide] | ≤ 10
9 | CC(=O)Nc1cc(Nc2cc(C)nc(C(C)(F)F)n2)c(-c2cccc(C(C)O)n2)cn1 (racemic) [Example 638, rac-(R)-N-(4′-((2-(1,1-difluoroethyl)-6-methylpyrimidin-4-yl)amino)-6-(1-hydroxyethyl)-[2,3′-bipyridin]-6′-yl)acetamide] | ≤ 10
10 | CC(=O)Nc1cc(Nc2cc(C)nc(C(C)(F)F)n2)c(OCC2(C)CCCCO2)cn1 (stereo not drawn) [Example 435, N-(4-((2-(1,1-difluoroethyl)-6-methylpyrimidin-4-yl)amino)-5-((2-methyltetrahydro-2H-pyran-2-yl)methoxy)pyridin-2-yl)acetamide] | ≤ 10
11 | COc1cnc(NC(C)=O)cc1Nc1cc(OC2CC2)nc(C(F)(F)F)n1 [Example 437, N-(4-((6-cyclopropoxy-2-(trifluoromethyl)pyrimidin-4-yl)amino)-5-methoxypyridin-2-yl)acetamide] | 10 to 100
12 | COc1cc(C(F)(F)F)nc(Nc2cc(NC(C)=O)ncc2OC)n1 [Example 438, N-(5-methoxy-4-((4-methoxy-6-(trifluoromethyl)pyrimidin-2-yl)amino)pyridin-2-yl)acetamide] | 100 to 1000
13 | COc1nc(C)cc(Nc2cc(NC(C)=O)ncc2OC)n1 [Example 452, N-(5-methoxy-4-((2-methoxy-6-methylpyrimidin-4-yl)amino)pyridin-2-yl)acetamide] | 10 to 100
14 | COCC12CC(c3nc(C)cc(Nc4cc(NC(C)=O)ncc4-c4ccn(C)n4)n3)(CO1)C2 [Example 561, N-(4-((2-(1-(methoxymethyl)-2-oxabicyclo[2.1.1]hexan-4-yl)-6-methylpyrimidin-4-yl)amino)-5-(1-methyl-1H-pyrazol-3-yl)pyridin-2-yl)acetamide] | 10 to 100
15 | CC(=O)Nc1cc(Nc2cc(C)nc(C(C)(F)F)n2)c(-c2nc(C)ns2)cn1 [Example 618, N-(4-((2-(1,1-difluoroethyl)-6-methylpyrimidin-4-yl)amino)-5-(3-methyl-1,2,4-thiadiazol-5-yl)pyridin-2-yl)acetamide] | ≤ 10
16 | COc1cc(C)nc(-c2cnc(NC(C)=O)cc2Nc2cc(C)nc(C(C)(F)F)n2)n1 [Example 621, N-(4-((2-(1,1-difluoroethyl)-6-methylpyrimidin-4-yl)amino)-5-(4-methoxy-6-methylpyrimidin-2-yl)pyridin-2-yl)acetamide] | 10 to 100
17 | COc1ccc(-c2cnc(NC(C)=O)cc2Nc2cc(C)nc(C(C)(F)F)n2)nc1F [Example 622, N-(4′-((2-(1,1-difluoroethyl)-6-methylpyrimidin-4-yl)amino)-6-fluorO5-methoxy-[2,3′-bipyridin]-6′-yl)acetamide] | ≤ 10
18 | CC(=O)Nc1cc(Nc2cc(C)nc(C(C)(F)F)n2)c(-c2cc(F)ccn2)cn1 [Example 624, N-(4′-((2-(1,1-difluoroethyl)-6-methylpyrimidin-4-yl)amino)-4-fluorO[2,3′-bipyridin]-6′-yl)acetamide] | ≤ 10
19 | CC(=O)Nc1cc(Nc2ccnc(C(C)(F)F)n2)c(-c2csc(C(C)(C)F)n2)cn1 [Example 713, N-(4-((2-(1,1-difluoroethyl)pyrimidin-4-yl)amino)-5-(2-(2-fluoropropan-2-yl)thiazol-4-yl)pyridin-2-yl)acetamide] | ≤ 10
20 | CC(=O)Nc1cc(Nc2ccnc(C(C)(F)F)n2)c(-c2nnc(C3CC3)o2)cn1 [Example 717, N-(5-(5-cyclopropyl-1,3,4-oxadiazol-2-yl)-4-((2-(1,1-difluoroethyl)pyrimidin-4-yl)amino)pyridin-2-yl)acetamide] | ≤ 10
21 | CC(=O)Nc1cc(Nc2cc(C)nc(C(C)(F)F)n2)c(N(C)C)cn1 [Example 725, N-(4-((2-(1,1-difluoroethyl)-6-methylpyrimidin-4-yl)amino)-5-(dimethylamino)pyridin-2-yl)acetamide] | 100 to 1000
22 | CC(=O)Nc1cc(Nc2cc(C)nc(C(C)(F)F)n2)c(N2CCCC2)cn1 [Example 726, N-(4-((2-(1,1-difluoroethyl)-6-methylpyrimidin-4-yl)amino)-5-(pyrrolidin-1-yl)pyridin-2-yl)acetamide] | 10 to 100
23 | CC(=O)Nc1cc(Nc2cc(C)nc(C(C)(F)F)n2)c(N2CCOCC2)cn1 [Example 727, N-(4-((2-(1,1-difluoroethyl)-6-methylpyrimidin-4-yl)amino)-5-morpholinopyridin-2-yl)acetamide] | 100 to 1000
24 | CC(=O)Nc1cc(Nc2ccnc(C(C)(F)F)n2)c(-n2cc(C#N)cn2)cn1 [Example 732, N-(5-(4-cyanO1H-pyrazol-1-yl)-4-((2-(1,1-difluoroethyl)pyrimidin-4-yl)amino)pyridin-2-yl)acetamide] | 10 to 100
25 | CC(=O)Nc1cc(Nc2ccnc(C(C)(F)F)n2)c(-n2cnc(C)n2)cn1 [Example 734, N-(4-((2-(1,1-difluoroethyl)pyrimidin-4-yl)amino)-5-(3-methyl-1H-1,2,4-triazol-1-yl)pyridin-2-yl)acetamide] | 100 to 1000
26 | CC(=O)Nc1cc(Nc2cc(C)nc(C(C)(F)F)n2)c(-n2cnc(C)n2)cn1 [Example 735, N-(4-((2-(1,1-difluoroethyl)-6-methylpyrimidin-4-yl)amino)-5-(3-methyl-1H-1,2,4-triazol-1-yl)pyridin-2-yl)acetamide] | 10 to 100
27 | CC(=O)Nc1cc(Nc2cc(C)nc(C(C)(F)F)n2)c(-c2cc(CN3CCOCC3)n(C)n2)cn1 [Example 739, N-(4-((2-(1,1-difluoroethyl)-6-methylpyrimidin-4-yl)amino)-5-(1-methyl-5-(morpholinomethyl)-1H-pyrazol-3-yl)pyridin-2-yl)acetamide] | ≤ 10
28 | CC(=O)Nc1cc(Nc2cc(C)nc(C(C)(F)F)n2)c(-c2cnc(C(C)N3CCCC3)cn2)cn1 (stereo not drawn) [Example 742, N-(4-((2-(1,1-difluoroethyl)-6-methylpyrimidin-4-yl)amino)-5-(5-(1-(pyrrolidin-1-yl)ethyl)pyrazin-2-yl)pyridin-2-yl)acetamide] | ≤ 10

Same assay, conditions: TR-FRET probe displacement, JH2 domain

Row | Compound | IC50 [nM]
29 | COC1CCN(c2ccc(-c3cnc(NC(C)=O)cc3Nc3ccnc(C(C)(F)F)n3)nn2)C1 (racemic) [Example 873, rac-(R)-N-(4-((2-(1,1-difluoroethyl)pyrimidin-4-yl)amino)-5-(6-(3-methoxypyrrolidin-1-yl)pyridazin-3-yl)pyridin-2-yl)acetamide] | ≤ 10
30 | CC(=O)Nc1cc(Nc2ccnc(C(C)(F)F)n2)c(-c2ccc(CN3C[C@H]4C[C@@H]3CO4)cn2)cn1 (racemic) [Example 884, rac-N-(5-(((1R,4R)-2-oxa-5-azabicyclo[2.2.1]heptan-5-yl)methyl)-4′-((2-(1,1-difluoroethyl)pyrimidin-4-yl)amino)-[2,3′-bipyridin]-6′-yl)acetamide] | ≤ 10
31 | CC(=O)Nc1cc(Nc2cc(C)nc(C(C)(F)F)n2)c([C@@H]2C[C@@H]2C#N)cn1 (relative stereo) [Example 810, rel-N-(5-((1R,2S)-2-cyanocyclopropyl)-4-((2-(1,1-difluoroethyl)-6-methylpyrimidin-4-yl)amino)pyridin-2-yl)acetamide] | 10 to 100
32 | CC(=O)Nc1cc(Nc2cc(C)nc(C34COC(C3)C4)n2)c(-c2ccc(F)cn2)cn1 [Example 752, N-(4′-((2-(2-oxabicyclo[2.1.1]hexan-4-yl)-6-methylpyrimidin-4-yl)amino)-5-fluorO[2,3′-bipyridin]-6′-yl)acetamide] | ≤ 10
33 | CC(=O)Nc1cc(Nc2cc(C)nc(C(C)(F)F)n2)c(-c2nc(CN3CCN(C)CC3)cs2)cn1 [Example 785, N-(4-((2-(1,1-difluoroethyl)-6-methylpyrimidin-4-yl)amino)-5-(4-((4-methylpiperazin-1-yl)methyl)thiazol-2-yl)pyridin-2-yl)acetamide] | ≤ 10
34 | CC(=O)Nc1cc(Nc2cc(C)nc(C(C)(F)F)n2)c(-c2cc(CN3CCOCC3)ccn2)cn1 [Example 806, N-(4′-((2-(1,1-difluoroethyl)-6-methylpyrimidin-4-yl)amino)-4-(morpholinomethyl)-[2,3′-bipyridin]-6′-yl)acetamide] | ≤ 10
35 | COCCOc1cc(Nc2ccnc(NC(C)=O)c2)nc(C(C)(F)F)n1 [Example 809, N-(4-((2-(1,1-difluoroethyl)-6-(2-methoxyethoxy)pyrimidin-4-yl)amino)pyridin-2-yl)acetamide] | 10 to 100
36 | CC(=O)Nc1cc(Nc2cccc(C(C)(F)F)n2)c(-c2ccc3c(n2)OCC(C)(C)O3)cn1 [Example 820, N-(4-((6-(1,1-difluoroethyl)pyridin-2-yl)amino)-5-(2,2-dimethyl-2,3-dihydro-[1,4]dioxino[2,3-b]pyridin-6-yl)pyridin-2-yl)acetamide] | ≤ 10
